Assay results reported in patent US6632795B1, “Dolastatin-15 derivatives in combination with taxanes” (BASF Aktiengesellschaft, priority 1997, dated 2003).
Peptide text beside a SMILES is read from it.

Experiments:
[1] = tested on: P388 tumor cells (murine lymphocytic leukemia cell line); assay: P388 in vivo tumor model (ascites, intraperitoneal implant); design: species or system mice; settings: Q4Dx3, 1
Procedure: The P388 tumor model employs a murine lymphocytic leukemia cell line (See Schabel et al., Pharmac. Ther. A, 1:411-435). The P388 tumor cells used in this invention, were harvested from donor mice by peritoneal lavage at day 7 post transplant. 1×10^6 P388 tumor cells were then implanted intraperitoneally in a volume of 0.5 ml in mice.
A typical dosing regimen includes initiation of treatment approximately one day post transplant followed by treatment on days 5 and 9 post transplant. Generally the compounds of Formula I are administered intravenously (i.v.) and the paclitaxel, taxotere or modified taxane or taxoid analog is administered intraperitoneally (i.p.).
Therapeutic results of the combinations of the invention against P388 cells, are presented in terms of increase in lifespan reflected by the relative median survival time (MST) of treated (T) versus control (C) group (survival period for untreated mice is generally in the range of 11 to 13 days) and is represented as %T/C values. According to the National Cancer Institute guidelines a %T/C in the range or 128-190% indicates a drug with moderate to good activity. In addition, the Net log Cell Kill is used to compare efficacy of different schedules and combinations, and is calculated as follows: [formula]
Doubling Time=time required for control tumors to double once (0.4 days)
T and C=the median survival time (days) for the control (C) and treated (T) mice.
Duration of treatment with drug 0.332=Derived constant
1×10^6 P388 tumor cells were transplanted intraperitoneally in a volume of 0.5 ml in mice. Treatment was initiated approximately 1 day later followed by treatment on both day 5 and day 9, post transplant. Compound (xvii) was administered IV while paclitaxel was administered IP. […] The dosing was sequential with compound (xvii) being administered first followed by paclitaxel one hour later.

[2] = tested on: LX-1 human lung tumor xenograft; assay: LX-1 human tumor xenograft model; type: in vivo, human (xenograft in athymic nude mice); settings: Q2Dx3, 5,12,19
Procedure: (§1) Human tumors from lung (LX-1), colon (CX-1) and prostate (PC-3) which had been grown in athymic nude mice were transplanted (xenografted) into new recipient mice, as is well known in the art. The transplanted tumor fragments were approximately 50 mg in size. The day of transplantation was designated as day 0. The combination therapy of the present invention was evaluated for anti-tumor efficacy following administration to the xenograft-bearing mice.
(§2) Combination therapy was accomplished by intravenous administration of both drugs. […] In other words, treatment consisted of 3 cycles, starting on days 5, 12 and 19 post tumor implantation. One cycle of treatment consisted of treatment every other day for a total of three times.
(§3) Tumor diameters and body weights were measured twice weekly. Tumor volumes were calculated using the diameters measured with Vernier calipers, and the formula:
(§4) (length×width^2)/2=mg of tumor weight
(§5) Mean tumor weights (MTW) were calculated for each treatment group, and T/C values determined for each group relative to the untreated control tumors.
(§6) Results are also presented as Net log Cell Kill and are calculated as follows: [formula]
(§7) T and C=The median days required for the control and treated tumors to reach a specified tumor size, in this instance 2000 mm^3.
(§8) Doubling Time=Time required for control tumors to double in size.
(§9) The Q2dx3; 5, 12 and 19 dosing regimen described above was used in this example. Paclitaxel was administered IV one hour after Compound (xvii) was administered IV.

[3] = tested on: CX-1 human colon tumor xenograft; assay: CX-1 human tumor xenograft model; type: in vivo, human (xenograft in athymic nude mice); settings: Q2Dx3, 5,12,19
Procedure: as §1, §2, §3, §4, §5, §6, §7, §8, §9

[4] = tested on: PC-3 human prostate tumor xenograft; assay: PC-3 human tumor xenograft model; type: in vivo, human (xenograft in athymic nude mice); settings: Q2Dx3, 5,12,19; for MTW d35 % T/C: mean tumor weight day 35; for R[…]: of 6 animals
Procedure: as §1, §2, §3, §4, §5, §6, §7, §8
The Q2dx3; 5, 12 and 19 dosing regimen described above was used in this example. Paclitaxel was administered IP one hour after Compound (xvii) was administered IV. The optimal single dose of both paclitaxel and Compound (xvii) was not determined.

[5] = tested on: National Cancer Institute's P388 lymphocytic leukemia cell line; settings: cited from earlier work
[6] = cited from earlier work
[7] = paclitaxel 10 mg/kg IV alone, of 6 animals

CC(C)[C@H](NC(=O)[C@H](C(C)C)N(C)C)C(=O)N(C)[C@H](C(=O)N1CCC[C@H]1C(=O)N1CCC[C@H]1C(=O)NCc1ccccc1)C(C)C [Compound (xvii)] (HELM PEPTIDE1{[CC(C)[C@@H](C(=O)[*:2])N(C)C].V.[meV].P.P.[c1ccc(CN[*:1])cc1]}$$$$V2.0)
% Toxic Death ([1]; (xvii) 20 mg/kg IV alone): 0% | % Toxic Death ([1]; (xvii) 40 mg/kg IV alone): 0% | % Toxic Death ([1]; (xvii) 60 mg/kg IV alone): 0% | % Toxic Death ([2]; (xvii) 7.5 mg/kg IV alone): 0% | % Toxic Death ([2]; (xvii) 15 mg/kg IV alone): 0% | % Toxic Death ([2]; (xvii) 25 mg/kg IV alone): 0% | % Toxic Death ([3]; (xvii) 25 mg/kg IV alone): 83% | % Toxic Death ([4]; (xvii) 30 mg/kg IV alone): 33%

CC(=O)O[C@H]1C(=O)[C@@]2(C)[C@H]([C@H](OC(=O)c3ccccc3)[C@]3(O)C[C@H](OC(=O)[C@H](O)[C@@H](NC(=O)c4ccccc4)c4ccccc4)C(C)=C1C3(C)C)[C@]1(OC(C)=O)CO[C@@H]1C[C@@H]2O [Paclitaxel]
% T/C (median survival time treated vs control) ([1]; paclitaxel 10 mg/kg IP alone): 183% | % Toxic Death ([1]; paclitaxel 10 mg/kg IP alone): 0% | Net Log Cell Kill ([1]; paclitaxel 10 mg/kg IP alone): 1.33 | % 60 Day Cures ([1]; paclitaxel 20 mg/kg IP alone): 4% | % T/C (median survival time treated vs control) ([1]; paclitaxel 20 mg/kg IP alone): 175% | % Toxic Death ([1]; paclitaxel 20 mg/kg IP alone): 0% | Net Log Cell Kill ([1]; paclitaxel 20 mg/kg IP alone): 0.66 | % 60 Day Cures ([1]; paclitaxel 30 mg/kg IP alone): 3% | % T/C (median survival time treated vs control) ([1]; paclitaxel 30 mg/kg IP alone): 204% | % Toxic Death ([1]; paclitaxel 30 mg/kg IP alone): 8% | Net Log Cell Kill ([1]; paclitaxel 30 mg/kg IP alone): 2.99 | % Toxic Death ([2]; paclitaxel 10 mg/kg IV alone): 0% | Net Log Cell Kill ([2]; paclitaxel 10 mg/kg IV alone): −0.374 | MTW d27 % T/C ([2]; paclitaxel 10 mg/kg IV alone, mean tumor weight day 27): 10.5% | R[…] [2, 7]: 2 | Net Log Cell Kill ([3]; paclitaxel 10 mg/kg IV alone): −0.124 | MTW d55 % T/C ([3]; paclitaxel 10 mg/kg IV alone, mean tumor weight day 55): 38.12% | R[…] [3, 7]: 2 | % Toxic Death ([4]; paclitaxel 10 mg/kg IP alone): 0% | Net Log Cell Kill ([4]; paclitaxel 10 mg/kg IP alone): −0.672 | MTW d35 % T/C ([4]; paclitaxel 10 mg/kg IP alone): 55.12% | R[…] ([4]; paclitaxel 10 mg/kg IP alone): 2 | % Toxic Death ([4]; paclitaxel 20 mg/kg IP alone): 0% | Net Log Cell Kill ([4]; paclitaxel 20 mg/kg IP alone): 1.98 | MTW d35 % T/C ([4]; paclitaxel 20 mg/kg IP alone): 2.86% | % Toxic Death ([4]; paclitaxel 30 mg/kg IP alone): 17% | Net Log Cell Kill ([4]; paclitaxel 30 mg/kg IP alone): toxic | MTW d35 % T/C ([4]; paclitaxel 30 mg/kg IP alone): 2% | R[…] ([4]; paclitaxel 30 mg/kg IP alone): 5

Dolastatin-15
inhibition of cell growth (in words) [5]: markedly inhibits the growth | aqueous solubility (in words) [6]: poor aqueous solubility
